Target: human mGluR7 (Homo sapiens (Human), UniProt Q14831)
Assay: Inositol monophosphate production assay (IP1 assay), inhibition of L-AP4 response
Format: cell-based
Settings: mean IC50 from at least two independent experiments; HEK293 cells transiently transfected with mGluR7, Gqtop and EAAC1; IP1 production vs EC80 L-AP4
Outline: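 HEK293 cells transiently co-expressing mGluR7, chimeric Gq/Gi (Gqtop) and EAAC1, switched to Glutamax medium 3 h before stimulation. IP1 measured by competitive HTRF; inhibition of an EC80-equivalent L-AP4 response, triplicate points, four-parameter fit to log IC50, mean of ≥2 experiments.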

Chain of human mGluR7 (Q14831 35-915): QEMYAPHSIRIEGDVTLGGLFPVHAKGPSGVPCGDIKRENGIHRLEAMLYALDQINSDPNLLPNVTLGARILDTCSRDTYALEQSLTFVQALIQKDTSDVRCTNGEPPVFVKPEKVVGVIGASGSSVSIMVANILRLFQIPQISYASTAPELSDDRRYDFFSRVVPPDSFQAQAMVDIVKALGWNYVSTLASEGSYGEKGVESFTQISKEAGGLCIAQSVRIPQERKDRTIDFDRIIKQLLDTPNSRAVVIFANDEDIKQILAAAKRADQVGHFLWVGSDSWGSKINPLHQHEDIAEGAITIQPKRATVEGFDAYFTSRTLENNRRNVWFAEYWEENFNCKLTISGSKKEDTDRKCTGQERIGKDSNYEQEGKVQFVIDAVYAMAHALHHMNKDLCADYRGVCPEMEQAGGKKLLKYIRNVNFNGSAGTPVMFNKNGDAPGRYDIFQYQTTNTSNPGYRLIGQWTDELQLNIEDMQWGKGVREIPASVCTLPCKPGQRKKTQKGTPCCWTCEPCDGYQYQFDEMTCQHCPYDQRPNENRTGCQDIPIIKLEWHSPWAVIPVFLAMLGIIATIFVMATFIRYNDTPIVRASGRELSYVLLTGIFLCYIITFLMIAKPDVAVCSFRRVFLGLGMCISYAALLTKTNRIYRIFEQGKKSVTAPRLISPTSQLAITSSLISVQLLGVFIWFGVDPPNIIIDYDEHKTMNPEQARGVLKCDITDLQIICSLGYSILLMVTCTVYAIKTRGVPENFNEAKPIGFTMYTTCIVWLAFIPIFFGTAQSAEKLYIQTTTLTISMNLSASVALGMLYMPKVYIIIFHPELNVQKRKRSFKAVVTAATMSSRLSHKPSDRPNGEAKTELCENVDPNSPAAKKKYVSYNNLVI

| Structure (SMILES) | IC50 |
| --- | --- |
| Cc1c(OC2CC2)cccc1C1CCc2c(cnn(-c3ncccn3)c2=O)C1 (single isomer, unassigned; (-)) [Example 128, (−)-6-(3-cyclopropoxy-2-methylphenyl)-2-(pyrimidin-2-yl)-5,6,7,8-tetrahydrophthalazin-1(2H)-one] | < 500 nM |
| Cc1ccc(C2Cc3cnn(-c4ccccn4)c(=O)c3C2)c(C)c1 (stereo not drawn) [Example 121, 6-(2,4-dimethylphenyl)-2-(pyridin-2-yl)-2,5,6,7-tetrahydro-1H-cyclopenta[d]-pyridazin-1-one] | 1000 to 30000 nM |
| Cc1cnc(-n2ncc3c(c2=O)CCC(c2cccc(OC4CC4)c2C)C3)nc1 (stereo not drawn) [Example 93, 6-(3-cyclopropoxy-2-methylphenyl)-2-(5-methylpyrimidin-2-yl)-5,6,7,8-tetrahydrophthalazin-1(2H)-one] | < 500 nM |
| COc1ccc(C2CCc3c(cnn(-c4ccccn4)c3=O)C2)cc1 (stereo not drawn) [Example 3, 6-(4-methoxyphenyl)-2-(pyridin-2-yl)-5,6,7,8-tetrahydrophthalazin-1(2H)-one] | 1000 to 30000 nM |
| Cc1ccc2c(cnn2C)c1C1CCc2c(cnn(-c3ncccn3)c2=O)C1 (stereo not drawn) [Example 88, 6-(1,5-dimethyl-1H-indazol-4-yl)-2-(pyrimidin-2-yl)-5,6,7,8-tetrahydrophthalazin-1(2H)-one] | 1000 to 30000 nM |
| COc1cccc(C2CCc3c(cnn(-c4ncc(O)cn4)c3=O)C2)c1C (stereo not drawn) [Example 45, 2-(5-hydroxypyrimidin-2-yl)-6-(3-methoxy-2-methylphenyl)-5,6,7,8-tetrahydrophthalazin-1(2H)-one] | < 500 nM |
| COc1ccc(C)c(C2CCc3c(cnn(-c4ncc(C5CC5)cn4)c3=O)C2)c1 (stereo not drawn) [Example 107, 2-(5-cyclopropylpyrimidin-2-yl)-6-(5-methoxy-2-methylphenyl)-5,6,7,8-tetrahydrophthalazin-1(2H)-one] | 500 to 1000 nM |
| Cc1ccc(C2CCc3c(cnn(-c4cc(C#N)ccn4)c3=O)C2)c(C)c1 (stereo not drawn) [Example 23, 2-(6-(2,4-dimethylphenyl)-1-oxo-5,6,7,8-tetrahydrophthalazin-2(1H)-yl)isonicotinonitrile] | < 500 nM |
| Cc1ccc(OC2CC2)cc1C1CCc2c(cnn(-c3ncccn3)c2=O)C1 (stereo not drawn) [Example 84, 6-(5-cyclopropoxy-2-methylphenyl)-2-(pyrimidin-2-yl)-5,6,7,8-tetrahydrophthalazin-1(2H)-one] | < 500 nM |
| Cc1ccc(C2CCc3c(cnn(-c4nc(C)cc(C)n4)c3=O)C2)c(C)c1 (stereo not drawn) [Example 36, 6-(2,4-dimethylphenyl)-2-(4,6-dimethylpyrimidin-2-yl)-5,6,7,8-tetrahydrophthalazin-1(2H)-one] | 1000 to 30000 nM |
| CC(=O)c1cccc(C2CCc3c(cnn(-c4ncccn4)c3=O)C2)c1C (stereo not drawn) [Example 120, 6-(3-acetyl-2-methylphenyl)-2-(pyrimidin-2-yl)-5,6,7,8-tetrahydrophthalazin-1(2H)-one] | 1000 to 30000 nM |
| Cc1ccc(C2CCc3c(cnn(-c4ccc(F)cn4)c3=O)C2)c(C)c1 (stereo not drawn) [Example 10, 6-(2,4-dimethylphenyl)-2-(5-fluoropyridin-2-yl)-5,6,7,8-tetrahydrophthalazin-1(2H)-one] | < 500 nM |
| COc1cccc(C2CCc3c(cnn(-c4ncccn4)c3=O)C2)c1Cl (stereo not drawn) [Example 72, 6-(2-chloro-3-methoxyphenyl)-2-(pyrimidin-2-yl)-5,6,7,8-tetrahydrophthalazin-1(2H)-one] | < 500 nM |
| O=c1c2c(cnn1-c1ccccn1)CC(c1cccc(C3CC3)c1)CC2 (stereo not drawn) [Example 63, 6-(3-cyclopropylphenyl)-2-(pyridin-2-yl)-5,6,7,8-tetrahydrophthalazin-1(2H)-one] | 500 to 1000 nM |
| COc1ccc(F)c(C2CCc3c(cnn(-c4ncccn4)c3=O)C2)c1 (stereo not drawn) [Example 74, 6-(2-fluoro-5-methoxyphenyl)-2-(pyrimidin-2-yl)-5,6,7,8-tetrahydrophthalazin-1(2H)-one] | < 500 nM |
| Cc1ccc(C2CCc3c(cnn(-c4ncc(N5CCC5)cn4)c3=O)C2)c(C)c1 (stereo not drawn) [Example 116, 2-(5-(azetidin-1-yl)pyrimidin-2-yl)-6-(2,4-dimethylphenyl)-5,6,7,8-tetrahydrophthalazin-1(2H)-one] | < 500 nM |
| COc1cnc(-n2ncc3c(c2=O)CCC(c2ccc(C)cc2C)C3)nc1 (stereo not drawn) [Example 53, 6-(2,4-dimethylphenyl)-2-(5-methoxypyrimidin-2-yl)-5,6,7,8-tetrahydrophthalazin-1(2H)-one] | < 500 nM |
| Cc1ccc(C2CCc3c(cnn(-c4ncccc4C#N)c3=O)C2)c(C)c1 (stereo not drawn) [Example 24, 2-(6-(2,4-dimethylphenyl)-1-oxo-5,6,7,8-tetrahydrophthalazin-2(1H)-yl)nicotinonitrile] | < 500 nM |
| CC(=O)Nc1cnc(-n2ncc3c(c2=O)CCC(c2ccc(C)cc2C)C3)nc1 (stereo not drawn) [Example 117, N-(2-(6-(2,4-dimethylphenyl)-1-oxo-5,6,7,8-tetrahydrophthalazin-2(1H)-yl)pyrimidin-5-yl)acetamide] | < 500 nM |
| Cc1c(OC2CC2)cccc1C1CCc2c(cnn(-c3ncc(Br)cn3)c2=O)C1 (stereo not drawn) [Example 126, 2-(5-bromopyrimidin-2-yl)-6-(3-cyclopropoxy-2-methylphenyl)-5,6,7,8-tetrahydrophthalazin-1(2H)-one] | < 500 nM |

| Structure (SMILES) | IC50 |
| --- | --- |
| CC(=O)Nc1cnc(-n2ncc3c(c2=O)CCC(c2cccc(OC4CC4)c2C)C3)nc1 (stereo not drawn) [Example 127, N-(2-(6-(3-cyclopropoxy-2-methylphenyl)-1-oxo-5,6,7,8-tetrahydrophthalazin-2(1H)-yl)pyrimidin-5-yl)acetamide] | < 500 nM |
| COc1cccc(-n2ncc3c(c2=O)CCC(c2ccc(C)cc2C)C3)n1 (stereo not drawn) [Example 13, 6-(2,4-dimethylphenyl)-2-(6-methoxypyridin-2-yl)-5,6,7,8-tetrahydrophthalazin-1(2H)-one] | < 500 nM |
| Cc1ccc(C2CCc3c(cnn(-c4cccc(F)n4)c3=O)C2)c(C)c1 (stereo not drawn) [Example 9, 6-(2,4-dimethylphenyl)-2-(6-fluoropyridin-2-yl)-5,6,7,8-tetrahydrophthalazin-1(2H)-one] | < 500 nM |
| COc1cccnc1-n1ncc2c(c1=O)CCC(c1ccc(C)cc1C)C2 (stereo not drawn) [Example 16, 6-(2,4-dimethylphenyl)-2-(3-methoxypyridin-2-yl)-5,6,7,8-tetrahydrophthalazin-1(2H)-one] | < 500 nM |
| COc1cccc(C2CCc3c(cnn(-c4ccc(O)cn4)c3=O)C2)c1C (stereo not drawn) [Example 38, 2-(5-hydroxypyridin-2-yl)-6-(3-methoxy-2-methylphenyl)-5,6,7,8-tetrahydrophthalazin-1(2H)-one] | < 500 nM |
| Cc1c(OC(C)C)cccc1C1CCc2c(cnn(-c3ncccn3)c2=O)C1 (stereo not drawn) [Example 103, 6-(3-isopropoxy-2-methylphenyl)-2-(pyrimidin-2-yl)-5,6,7,8-tetrahydrophthalazin-1(2H)-one] | 1000 to 30000 nM |
| COc1ccnc(-n2ncc3c(c2=O)CCC(c2cccc(OC)c2C)C3)n1 (stereo not drawn) [Example 42, 6-(3-methoxy-2-methylphenyl)-2-(4-methoxypyrimidin-2-yl)-5,6,7,8-tetrahydrophthalazin-1(2H)-one] | < 500 nM |
| COc1cccc(C2CCc3c(cnn(-c4ncc(C)cn4)c3=O)C2)c1Cl (single isomer, unassigned; (-)) [Example 134, (−)-6-(2-chloro-3-methoxyphenyl)-2-(5-methylpyrimidin-2-yl)-5,6,7,8-tetrahydrophthalazin-1(2H)-one] | < 500 nM |
| COCc1cccc(C2CCc3c(cnn(-c4ncccn4)c3=O)C2)c1 (stereo not drawn) [Example 83, 6-(3-(methoxymethyl)phenyl)-2-(pyrimidin-2-yl)-5,6,7,8-tetrahydrophthalazin-1(2H)-one] | 500 to 1000 nM |
| Cc1ccc(C)c(C2CCc3c(cnn(-c4ncccn4)c3=O)C2)c1 (stereo not drawn) [Example 81, 6-(2,5-dimethylphenyl)-2-(pyrimidin-2-yl)-5,6,7,8-tetrahydrophthalazin-1(2H)-one] | 500 to 1000 nM |
| Cc1ccc(C2CCc3c(cnn(-c4ncccn4)c3=O)C2)c(Cl)c1 (stereo not drawn) [Example 95, 6-(2-chloro-4-methylphenyl)-2-(pyrimidin-2-yl)-5,6,7,8-tetrahydrophthalazin-1(2H)-one] | < 500 nM |
| COc1ccc(Cl)c(C2CCc3c(cnn(-c4ncccn4)c3=O)C2)c1 (stereo not drawn) [Example 75, 6-(2-chloro-5-methoxyphenyl)-2-(pyrimidin-2-yl)-5,6,7,8-tetrahydrophthalazin-1(2H)-one] | < 500 nM |
| Cc1c(OCC2CC2)cccc1C1CCc2c(cnn(-c3ncccn3)c2=O)C1 (stereo not drawn) [Example 102, 6-(3-(cyclopropylmethoxy)-2-methylphenyl)-2-(pyrimidin-2-yl)-5,6,7,8-tetrahydrophthalazin-1(2H)-one] | 500 to 1000 nM |
| Cc1ccc(C2CCc3c(cnn(-c4cccnc4)c3=O)C2)c(C)c1 (stereo not drawn) [Example 28, 6-(2,4-dimethylphenyl)-2-(pyridin-3-yl)-5,6,7,8-tetrahydrophthalazin-1(2H)-one] | < 500 nM |
| COc1cccc(C2CCc3c(cnn(-c4ncccn4)c3=O)C2)c1F (stereo not drawn) [Example 79, 6-(2-fluoro-3-methoxyphenyl)-2-(pyrimidin-2-yl)-5,6,7,8-tetrahydrophthalazin-1(2H)-one] | < 500 nM |
| Cc1ccc(C2CCc3c(cnn(-c4ncc(F)cn4)c3=O)C2)c(C)c1 (stereo not drawn) [Example 54, 6-(2,4-dimethylphenyl)-2-(5-fluoropyrimidin-2-yl)-5,6,7,8-tetrahydrophthalazin-1(2H)-one] | < 500 nM |
| COc1ccc(F)c(C2CCc3c(cnn(-c4ncccn4)c3=O)C2)c1F (stereo not drawn) [Example 90, 6-(2,6-difluoro-3-methoxyphenyl)-2-(pyrimidin-2-yl)-5,6,7,8-tetrahydrophthalazin-1(2H)-one] | < 500 nM |
| COc1ccc(-n2ncc3c(c2=O)CCC(c2ccc(C)cc2C)C3)nc1 (stereo not drawn) [Example 14, 6-(2,4-dimethylphenyl)-2-(5-methoxypyridin-2-yl)-5,6,7,8-tetrahydrophthalazin-1(2H)-one] | < 500 nM |
| Cc1ccc(C2CCc3c(cnn(-c4ncccc4F)c3=O)C2)c(C)c1 (stereo not drawn) [Example 12, 6-(2,4-dimethylphenyl)-2-(3-fluoropyridin-2-yl)-5,6,7,8-tetrahydrophthalazin-1(2H)-one] | < 500 nM |

Reference: patent US11414395B2, “Heterocyclic compounds as modulators of mGluR7” (PRAGMA Therapeutics, priority 2017, dated 2022)
